Here are results for 21 compounds from ChEMBL document CHEMBL5291721, “A preclinical secondary pharmacology resource illuminates target-adverse drug reaction associations of marketed drugs” (Nat Commun, 2023).

Broadly, the AC50 is the concentration at which the activity in the assay is half-maximal.

Assay [1] deals with Vascular endothelial growth factor receptor 2 (Homo sapiens, UniProt P35968). The format is functional.
Another assay concerns the target T1, Adenosine receptor A3 (Homo sapiens, UniProt P0DMS8).
T1 sequence (P0DMS8 whole entry): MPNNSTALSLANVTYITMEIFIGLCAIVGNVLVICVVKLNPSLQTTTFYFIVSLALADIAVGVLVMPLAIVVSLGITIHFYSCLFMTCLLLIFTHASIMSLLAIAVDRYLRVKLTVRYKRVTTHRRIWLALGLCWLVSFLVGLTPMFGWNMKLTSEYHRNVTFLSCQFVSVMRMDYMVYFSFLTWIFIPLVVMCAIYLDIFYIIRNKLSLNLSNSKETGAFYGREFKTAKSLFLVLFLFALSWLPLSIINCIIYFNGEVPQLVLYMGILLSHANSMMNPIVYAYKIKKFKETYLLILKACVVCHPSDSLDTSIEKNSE

For assay [2], the target named is T2, Equilibrative nucleoside transporter 1 (Homo sapiens, UniProt Q99808).
T2 sequence (Q99808 whole entry): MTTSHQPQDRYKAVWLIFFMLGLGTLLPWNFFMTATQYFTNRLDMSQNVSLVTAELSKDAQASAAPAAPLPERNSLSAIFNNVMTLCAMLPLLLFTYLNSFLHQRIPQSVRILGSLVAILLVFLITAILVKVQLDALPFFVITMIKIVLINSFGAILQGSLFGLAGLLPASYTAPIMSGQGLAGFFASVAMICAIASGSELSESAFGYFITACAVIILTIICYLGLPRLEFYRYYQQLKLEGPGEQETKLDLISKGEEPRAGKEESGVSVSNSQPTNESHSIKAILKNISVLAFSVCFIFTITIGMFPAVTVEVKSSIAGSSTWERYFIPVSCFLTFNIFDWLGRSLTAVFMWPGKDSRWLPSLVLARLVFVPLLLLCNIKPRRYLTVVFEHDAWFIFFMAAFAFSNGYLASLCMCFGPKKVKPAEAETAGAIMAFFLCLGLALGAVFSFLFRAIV

Assay [3] deals with T3, Alpha-2C adrenergic receptor (Homo sapiens, UniProt P18825).
T3 sequence (P18825 whole entry): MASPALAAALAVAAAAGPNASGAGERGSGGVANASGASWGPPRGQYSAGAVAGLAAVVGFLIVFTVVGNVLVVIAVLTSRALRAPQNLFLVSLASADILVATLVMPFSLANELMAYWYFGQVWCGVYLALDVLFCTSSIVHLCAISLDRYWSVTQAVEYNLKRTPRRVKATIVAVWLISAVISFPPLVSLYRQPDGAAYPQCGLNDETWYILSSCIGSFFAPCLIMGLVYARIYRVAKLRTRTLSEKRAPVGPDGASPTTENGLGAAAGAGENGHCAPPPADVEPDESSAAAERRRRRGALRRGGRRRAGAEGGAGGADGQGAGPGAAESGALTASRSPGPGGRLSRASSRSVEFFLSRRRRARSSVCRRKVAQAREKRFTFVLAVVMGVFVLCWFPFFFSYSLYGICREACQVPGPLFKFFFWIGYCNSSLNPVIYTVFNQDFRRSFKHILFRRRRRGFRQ
Type of assay: functional.

For a further assay, the target named is T4, Progesterone receptor (Homo sapiens, UniProt P06401).
T4 sequence (P06401 whole entry): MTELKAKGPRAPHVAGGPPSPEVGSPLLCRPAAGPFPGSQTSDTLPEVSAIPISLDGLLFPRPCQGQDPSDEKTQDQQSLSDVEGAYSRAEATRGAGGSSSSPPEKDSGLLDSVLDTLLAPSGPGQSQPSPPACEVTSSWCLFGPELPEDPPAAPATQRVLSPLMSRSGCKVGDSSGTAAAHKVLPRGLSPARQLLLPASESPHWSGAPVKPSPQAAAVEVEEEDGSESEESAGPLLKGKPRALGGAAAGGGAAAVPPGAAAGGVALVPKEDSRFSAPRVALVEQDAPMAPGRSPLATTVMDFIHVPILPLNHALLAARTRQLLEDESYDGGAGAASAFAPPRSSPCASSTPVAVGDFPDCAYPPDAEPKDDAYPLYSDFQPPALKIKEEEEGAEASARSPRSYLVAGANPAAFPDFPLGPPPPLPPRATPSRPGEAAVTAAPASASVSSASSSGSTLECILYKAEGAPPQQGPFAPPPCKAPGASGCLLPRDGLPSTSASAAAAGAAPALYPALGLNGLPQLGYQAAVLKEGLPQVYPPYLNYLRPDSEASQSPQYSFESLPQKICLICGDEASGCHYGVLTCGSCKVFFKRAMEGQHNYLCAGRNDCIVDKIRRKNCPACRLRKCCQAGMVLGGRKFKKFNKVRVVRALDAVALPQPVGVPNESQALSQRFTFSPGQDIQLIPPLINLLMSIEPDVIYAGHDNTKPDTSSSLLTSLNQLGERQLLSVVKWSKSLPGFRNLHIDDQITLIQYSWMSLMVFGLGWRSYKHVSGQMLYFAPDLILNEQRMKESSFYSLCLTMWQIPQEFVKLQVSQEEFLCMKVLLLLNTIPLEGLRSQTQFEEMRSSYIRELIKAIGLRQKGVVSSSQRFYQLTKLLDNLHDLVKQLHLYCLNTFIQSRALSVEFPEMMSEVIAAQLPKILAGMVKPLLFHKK
The format is functional.

For assay [4], the target named is 5-hydroxytryptamine receptor 2B (Homo sapiens, UniProt P41595). Type of assay: functional, cell-based.
The target in assay [5] is Sodium-dependent dopamine transporter (Homo sapiens, UniProt Q01959).
Assay [6] concerns the target Voltage-dependent L-type calcium channel subunit alpha-1C (Rattus norvegicus, UniProt P22002). Type of assay: functional.
Note: assay procedure not described here.

Chain of Voltage-dependent L-type calcium channel subunit alpha-1C (P22002 whole entry): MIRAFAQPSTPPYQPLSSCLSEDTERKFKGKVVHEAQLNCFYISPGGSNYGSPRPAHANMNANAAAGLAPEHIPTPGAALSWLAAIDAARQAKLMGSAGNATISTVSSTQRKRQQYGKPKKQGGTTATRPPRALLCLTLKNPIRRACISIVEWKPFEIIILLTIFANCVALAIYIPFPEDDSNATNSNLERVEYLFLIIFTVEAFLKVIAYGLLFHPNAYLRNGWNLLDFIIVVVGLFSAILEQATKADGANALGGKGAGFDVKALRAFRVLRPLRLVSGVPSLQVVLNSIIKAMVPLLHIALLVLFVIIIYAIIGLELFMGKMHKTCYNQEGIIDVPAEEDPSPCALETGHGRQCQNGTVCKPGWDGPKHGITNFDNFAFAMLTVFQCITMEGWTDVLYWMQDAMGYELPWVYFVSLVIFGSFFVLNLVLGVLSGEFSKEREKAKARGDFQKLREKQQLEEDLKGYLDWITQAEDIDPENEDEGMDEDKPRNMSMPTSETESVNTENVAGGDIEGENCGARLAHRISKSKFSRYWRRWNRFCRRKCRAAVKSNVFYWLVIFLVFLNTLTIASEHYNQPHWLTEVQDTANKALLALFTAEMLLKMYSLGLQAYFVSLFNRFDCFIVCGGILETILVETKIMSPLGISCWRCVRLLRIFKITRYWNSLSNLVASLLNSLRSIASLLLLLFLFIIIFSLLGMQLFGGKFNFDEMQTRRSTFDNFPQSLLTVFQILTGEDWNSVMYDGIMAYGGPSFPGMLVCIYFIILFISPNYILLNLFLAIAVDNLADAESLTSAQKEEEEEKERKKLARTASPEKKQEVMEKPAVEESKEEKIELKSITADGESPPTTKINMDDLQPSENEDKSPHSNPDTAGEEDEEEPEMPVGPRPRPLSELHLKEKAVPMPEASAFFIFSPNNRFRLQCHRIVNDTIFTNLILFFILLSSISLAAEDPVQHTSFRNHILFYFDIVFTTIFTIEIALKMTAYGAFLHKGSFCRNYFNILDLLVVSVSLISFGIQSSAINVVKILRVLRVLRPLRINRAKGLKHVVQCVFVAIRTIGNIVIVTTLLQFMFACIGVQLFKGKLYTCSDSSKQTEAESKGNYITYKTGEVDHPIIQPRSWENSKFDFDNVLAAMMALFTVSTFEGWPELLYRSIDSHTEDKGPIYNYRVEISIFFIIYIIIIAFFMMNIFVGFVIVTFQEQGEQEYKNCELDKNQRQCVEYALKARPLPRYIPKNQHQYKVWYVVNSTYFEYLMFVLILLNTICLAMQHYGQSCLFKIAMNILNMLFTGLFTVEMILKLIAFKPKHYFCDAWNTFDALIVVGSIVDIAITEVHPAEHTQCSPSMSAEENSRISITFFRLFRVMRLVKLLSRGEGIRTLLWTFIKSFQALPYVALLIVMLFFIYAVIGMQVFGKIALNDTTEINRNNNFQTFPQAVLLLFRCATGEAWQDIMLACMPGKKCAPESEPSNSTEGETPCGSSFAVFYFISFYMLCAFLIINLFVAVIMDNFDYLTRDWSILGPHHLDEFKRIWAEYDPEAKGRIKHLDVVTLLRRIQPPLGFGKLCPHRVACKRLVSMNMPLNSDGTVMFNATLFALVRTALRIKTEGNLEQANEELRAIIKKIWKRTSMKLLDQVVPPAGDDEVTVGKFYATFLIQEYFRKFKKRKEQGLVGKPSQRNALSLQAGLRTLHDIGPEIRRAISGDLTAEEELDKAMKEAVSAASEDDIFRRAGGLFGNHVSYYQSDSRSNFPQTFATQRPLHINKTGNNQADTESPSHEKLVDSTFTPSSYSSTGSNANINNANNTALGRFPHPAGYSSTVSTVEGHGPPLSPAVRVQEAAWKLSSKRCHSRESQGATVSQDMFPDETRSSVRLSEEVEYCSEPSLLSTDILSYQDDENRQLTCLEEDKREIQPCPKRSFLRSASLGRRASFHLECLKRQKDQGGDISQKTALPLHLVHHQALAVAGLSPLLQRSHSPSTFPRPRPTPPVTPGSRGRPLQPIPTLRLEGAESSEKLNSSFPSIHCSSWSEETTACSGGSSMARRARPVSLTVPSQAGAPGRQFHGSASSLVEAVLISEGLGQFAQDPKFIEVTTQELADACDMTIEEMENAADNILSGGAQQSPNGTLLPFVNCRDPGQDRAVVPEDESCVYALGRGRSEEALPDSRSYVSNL
Chain of Vascular endothelial growth factor receptor 2 (P35968 whole entry): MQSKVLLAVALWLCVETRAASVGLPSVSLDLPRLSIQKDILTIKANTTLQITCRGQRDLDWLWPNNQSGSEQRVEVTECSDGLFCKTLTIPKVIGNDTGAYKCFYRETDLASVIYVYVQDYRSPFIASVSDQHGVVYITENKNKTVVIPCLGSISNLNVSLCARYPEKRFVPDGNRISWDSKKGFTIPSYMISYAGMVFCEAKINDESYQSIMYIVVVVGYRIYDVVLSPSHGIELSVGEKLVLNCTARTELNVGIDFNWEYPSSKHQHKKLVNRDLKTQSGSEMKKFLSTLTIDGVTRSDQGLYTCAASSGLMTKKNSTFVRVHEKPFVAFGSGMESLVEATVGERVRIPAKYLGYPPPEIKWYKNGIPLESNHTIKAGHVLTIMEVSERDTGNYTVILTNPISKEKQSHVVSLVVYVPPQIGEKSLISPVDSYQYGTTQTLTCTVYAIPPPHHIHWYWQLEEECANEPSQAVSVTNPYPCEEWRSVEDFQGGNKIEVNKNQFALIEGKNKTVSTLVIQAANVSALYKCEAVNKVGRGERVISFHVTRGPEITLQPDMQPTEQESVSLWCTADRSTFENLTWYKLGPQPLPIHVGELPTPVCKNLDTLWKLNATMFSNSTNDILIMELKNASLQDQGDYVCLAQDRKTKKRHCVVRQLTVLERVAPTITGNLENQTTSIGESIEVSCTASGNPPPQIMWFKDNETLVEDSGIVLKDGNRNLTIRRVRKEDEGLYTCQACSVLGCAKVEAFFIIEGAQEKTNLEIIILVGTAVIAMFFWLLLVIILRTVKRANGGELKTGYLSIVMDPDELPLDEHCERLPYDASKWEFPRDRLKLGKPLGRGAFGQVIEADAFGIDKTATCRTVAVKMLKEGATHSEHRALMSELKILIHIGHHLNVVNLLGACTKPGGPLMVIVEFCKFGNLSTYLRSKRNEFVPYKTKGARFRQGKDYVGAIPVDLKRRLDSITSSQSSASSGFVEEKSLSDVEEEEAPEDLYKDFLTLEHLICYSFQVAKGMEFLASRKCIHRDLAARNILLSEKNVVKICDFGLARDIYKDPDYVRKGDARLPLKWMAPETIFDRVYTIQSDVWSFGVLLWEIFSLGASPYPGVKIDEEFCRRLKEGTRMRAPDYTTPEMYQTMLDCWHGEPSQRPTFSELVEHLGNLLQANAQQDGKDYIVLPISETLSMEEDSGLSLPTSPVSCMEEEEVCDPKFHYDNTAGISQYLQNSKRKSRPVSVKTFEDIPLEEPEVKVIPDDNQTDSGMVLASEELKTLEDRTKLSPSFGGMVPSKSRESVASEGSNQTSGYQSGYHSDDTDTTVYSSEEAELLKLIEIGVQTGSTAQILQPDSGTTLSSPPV
Chain of Sodium-dependent dopamine transporter (Q01959 whole entry): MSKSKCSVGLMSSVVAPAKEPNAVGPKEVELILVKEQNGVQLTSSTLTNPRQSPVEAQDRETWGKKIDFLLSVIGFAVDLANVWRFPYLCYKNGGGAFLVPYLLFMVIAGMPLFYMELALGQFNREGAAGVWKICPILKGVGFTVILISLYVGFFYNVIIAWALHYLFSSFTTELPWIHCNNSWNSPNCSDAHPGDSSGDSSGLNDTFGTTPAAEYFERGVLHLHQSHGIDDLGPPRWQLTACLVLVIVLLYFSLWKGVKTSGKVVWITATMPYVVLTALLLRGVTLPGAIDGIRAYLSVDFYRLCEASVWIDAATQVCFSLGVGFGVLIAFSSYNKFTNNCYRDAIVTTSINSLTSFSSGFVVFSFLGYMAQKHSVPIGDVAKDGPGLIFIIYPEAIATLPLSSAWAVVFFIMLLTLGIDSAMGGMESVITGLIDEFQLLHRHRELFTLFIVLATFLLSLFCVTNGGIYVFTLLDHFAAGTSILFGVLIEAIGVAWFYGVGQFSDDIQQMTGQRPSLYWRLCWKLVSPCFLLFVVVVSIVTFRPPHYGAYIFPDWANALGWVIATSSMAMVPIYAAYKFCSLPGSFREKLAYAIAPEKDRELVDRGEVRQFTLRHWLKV
Chain of 5-hydroxytryptamine receptor 2B (P41595 whole entry): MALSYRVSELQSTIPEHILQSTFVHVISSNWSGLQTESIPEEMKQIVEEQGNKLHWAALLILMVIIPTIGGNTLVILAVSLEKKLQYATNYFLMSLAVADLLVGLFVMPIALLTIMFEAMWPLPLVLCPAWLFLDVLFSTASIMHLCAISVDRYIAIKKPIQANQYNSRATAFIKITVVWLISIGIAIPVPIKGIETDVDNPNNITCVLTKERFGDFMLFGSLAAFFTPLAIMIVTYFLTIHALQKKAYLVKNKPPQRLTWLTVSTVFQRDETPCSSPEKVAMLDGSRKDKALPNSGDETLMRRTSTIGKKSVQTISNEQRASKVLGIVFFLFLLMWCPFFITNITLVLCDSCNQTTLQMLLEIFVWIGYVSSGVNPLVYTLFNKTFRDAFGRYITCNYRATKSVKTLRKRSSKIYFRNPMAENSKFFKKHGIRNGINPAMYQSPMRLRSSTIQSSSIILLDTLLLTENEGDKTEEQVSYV

With `CC(=O)OC[C@H]1O[C@@H](n2ncc(=O)[nH]c2=O)[C@H](OC(C)=O)[C@@H]1OC(C)=O` [AZARIBINE], the AC50 (in assay [1]; at Adenosine receptor A3) was > 30 µM in each case.

With `O=C(O)COCCN1CCN(C(c2ccccc2)c2ccc(Cl)cc2)CC1` (configuration not stated) [CETIRIZINE], the AC50 in assay [2] was > 30 µM; in assay [1], > 30 µM; on Adenosine receptor A3, > 30 µM; in assay [3], > 10 µM.

Regarding `C=C1CC[C@H](O)C/C1=C/C=C1\CCC[C@]2(C)[C@@H]([C@H](C)CCCC(C)C)CC[C@@H]12` [CHOLECALCIFEROL], the AC50 is > 30 µM in assay [1] and 14.8 µM at Adenosine receptor A3.

As to `C[C@H](CCC(=O)O)[C@H]1CC[C@H]2[C@@H]3[C@H](O)C[C@@H]4C[C@H](O)CC[C@]4(C)[C@H]3C[C@H](O)[C@]12C` [CHOLIC ACID], the AC50 (in assay [1]; at Adenosine receptor A3) was > 30 µM in each case.

Turning to `C/C=C(/C(=C/C)c1ccc(O)cc1)c1ccc(O)cc1` [DIENESTROL], the AC50 in assay [2] was > 30 µM; on Progesterone receptor it was > 30 µM; in assay [4], > 10 µM; in assay [5], > 30 µM; in assay [6] it was > 10 µM; in assay [3] it was > 10 µM.

On to `CN[C@]1(c2ccccc2Cl)CCCCC1=O` [ESKETAMINE], for which the half-maximal activity concentration (AC50) (in assay [2]; at Progesterone receptor; in assay [4]; in assay [5]; in assay [6]; in assay [3]) was > 30 µM each time.

As for `CC(O)(P(=O)(O)O)P(=O)(O)O` [ETIDRONIC ACID], the AC50 (in assay [1]; at Adenosine receptor A3) was > 30 µM each time.

As to `COc1ccc([C@@H]2CC(=O)c3c(O)cc(O)cc3O2)cc1O` [HESPERETIN], the AC50 (in assay [2]; on Progesterone receptor; in assay [4]; in assay [5]; in assay [6]; in assay [3]) was > 10 µM throughout.

Take `CNCCc1ccc(OC(=O)C(C)C)c(OC(=O)C(C)C)c1` [IBOPAMINE]: the AC50 in assay [2] is > 30 µM; on Progesterone receptor, > 30 µM; in assay [4], > 30 µM; in assay [5] it was > 30 µM; in assay [6], 18 µM; in assay [3] it was 8.4 µM.

Take `CCOC(=O)C1=C(C)NC(C)=C(C(=O)OCC)C1c1ccccc1/C=C/C(=O)OC(C)(C)C` [LACIDIPINE]: the AC50 is > 30 µM in assay [2]; 29 µM on Progesterone receptor; > 30 µM in assay [4]; > 30 µM in assay [5]; 0.32 µM in assay [6]; > 30 µM in assay [3].

Turning to `C=C1c2cccc(O)c2C(=O)C2=C(O)[C@]3(O)C(=O)C(C(N)=O)=C(O)[C@@H](N(C)C)[C@@H]3[C@@H](O)[C@H]12` [METHACYCLINE], the AC50 in assay [2] was > 10 µM; on Progesterone receptor it was > 30 µM; in assay [4] it was > 10 µM; in assay [5] it was > 10 µM; in assay [6], > 10 µM; in assay [3] it was > 10 µM.

As for `Cc1ccccc1N1C(=O)c2cc(S(N)(=O)=O)c(Cl)cc2NC1C` (configuration not stated) [METOLAZONE], the AC50 (in assay [2]; at Progesterone receptor; in assay [4]; in assay [5]; in assay [6]; in assay [3]) was > 10 µM in each case.

In the case of `O=C(O)c1cccnc1Nc1cccc(C(F)(F)F)c1` [NIFLUMIC ACID], the AC50 (in assay [2]; on Progesterone receptor; in assay [4]; in assay [5]; in assay [6]; in assay [3]) was > 10 µM throughout.

Turning to `O=C1c2cccc3c2[C@H](CCC3)CN1[C@@H]1CN2CCC1CC2` [PALONOSETRON], the AC50 in assay [2] was > 30 µM; at Progesterone receptor it was > 30 µM; in assay [4], > 30 µM; in assay [5], > 30 µM; in assay [6], > 30 µM; in assay [3], 4 µM.

For `NNCCc1ccccc1` [PHENELZINE], the AC50 (in assay [1]; on Adenosine receptor A3) was > 30 µM each time.

Turning to `O=C1c2ccccc2C(=O)C1c1ccccc1` [PHENINDIONE], the AC50 was > 10 µM in assay [2]; > 10 µM on Progesterone receptor; 18 µM in assay [4]; > 10 µM in assay [5]; > 10 µM in assay [6]; > 10 µM in assay [3].

For `Cc1cccc(C)c1NC(=O)CC12CCCN1CCC2` [PILSICAINIDE], the AC50 (in assay [2]; at Progesterone receptor; in assay [4]; in assay [5]; in assay [6]; in assay [3]) was > 30 µM throughout.

Take `COC(=O)[C@H]1[C@H]2C[C@@H]3c4[nH]c5cc(OC)ccc5c4CCN3C[C@H]2C[C@@H](OC(=O)c2cc(OC)c(OC)c(OC)c2)[C@@H]1OC` [RESERPINE]: the AC50 in assay [2] is 28.5 µM; at Progesterone receptor, > 10 µM; in assay [4] it was > 10 µM; in assay [1], > 30 µM; in assay [5], 13 µM; in assay [6], 8.83 µM. For the same compound, the AC50 on Adenosine receptor A3 was 17.7 µM; in assay [3], > 30 µM.

On to `C[C@]12C=CC(=O)C=C1CC[C@@H]1[C@@H]2CC[C@]2(C)OC(=O)CC[C@@H]12` [TESTOLACTONE], for which the half-maximal activity concentration (AC50) in assay [2] was > 10 µM; on Progesterone receptor, > 10 µM; in assay [4], > 30 µM; in assay [5] it was > 10 µM; in assay [6] it was > 10 µM; in assay [3], > 10 µM.

`Cc1ccc(C(=O)C(C)CN2CCCCC2)cc1` (configuration not stated) [TOLPERISONE]: the AC50 (in assay [1]; on Adenosine receptor A3) was > 30 µM throughout.

For the compound `CCOC(=O)c1c(CSc2ccccc2)n(C)c2cc(Br)c(O)c(CN(C)C)c12` [UMIFENOVIR], the AC50 in assay [2] is > 30 µM; on Progesterone receptor it was > 30 µM; in assay [4] it was > 30 µM; in assay [5], 9.1 µM; in assay [6], > 30 µM; in assay [3] it was 12 µM.
